# Measured values: patent US20190008837A1, “OPHTHALMIC COMPOSITIONS AND ASSOCIATED METHODS” (University of Utah Research Foundation, priority 2016, published 2019)
# System: cornea neuron fibers of scratched corneas
# Assay: Cornea scratch model, cornea neuron regeneration on flatmounts (Example 1)
# Format: in vivo, mice
# Settings: eye drops 3 times per day for 5 days, corneas harvested on the 7th day, beta III tubulin staining
# Protocol: Nine mice were divided into three treatment groups having three mice each. The corneas of each of the mice in each of the groups were scratched. The control group was administered a standard blank (e.g. pacebo) composition. The first treatment group received pergolide. The second treatment group received cabergoline. Each of the eye drops was applied 3 times per day for 5 days. The corneas were harvested on the 7th day. The corneas were then fixed in acetone for 1 hour at room temperature and then blocked in 3% BSA for 1 hour. The cornea flatmounts were stained with primary antibody, anti-beta III tubulin antibody (rabbit polyclonal, ab18207) at 1:200 in 3% BSA blocking buffer overnight at 4° C. After washing 3 times for 10 minutes, each of the cornea flatmounts were incubated with secondary antibody (goat anti rabbit, Invitrogen Alexa Fluor 555) at 1:200 in 3% BSA for 1 hour at room temperature. The flatmounts were again washed 3 times for 10 minutes each. Images of the cornea neuron fibers were taken and analyzed under EVOS microscopy.
smiles,measurement,value
C=CCN1C[C@H](C(=O)N(CCCN(C)C)C(=O)NCC)C[C@@H]2c3cccc4[nH]cc(c34)C[C@H]21 [cabergoline],cornea neuron regeneration compared to the blank control group,no neuron regeneration
